Measurements taken from patent publication US20130224151A1, “Use of FAAH Inhibitors for Treating Abdominal, Visceral and Pelvic Pain” (UNITED STATES OF AMERICA, priority 2010, published 2013).
Entries after “also recorded” stand apart in the source; their conditions may differ.

Key:
Female Wistar rats = test: Partial restraint stress-induced hyperalgesia model; format: in vivo, rat; settings: 3 mg/kg or 10 mg/kg SC one hour prior to 2 h PRS, CRD 15 minutes after PRS
Procedure: Female Wistar rats surgically prepared for electromyography as described in Example 1 were used to evaluate the effects of the FAAH inhibitors (a) compound A or (b) compound B, on colorectal sensitivity and compliance after a 2 hour partial restraint stress session.
Partial restraint stress (PRS), a relatively mild stress, was induced as previously described (Morteau et al. Dig. Dis. Sci. 1994: 39:1239-48; “Guanylate cyclase C-mediated antinociceptive effects of linaclotide in rodent models of visceral pain”, Eutamene H, Bradesi S, Larauche M, Theodorou V, Beaufrand C, Ohning G, Fioramonti J, Cohen M, Bryant A P, Kurtz C, Currie M G, Mayer E A, Bueno L, Neurogastroenterology and motility —2010 Volume: 22 p. 312-322; “Stress-induced changes in intestinal transit in the rat: a model for irritable bowel syndrome”, Williams C L, Villar R G, Peterson J M, Burks T F, Gastroenterology—1988 p. 611-21). Female rats were lightly anesthetized with diethyl ether and their shoulders, upper forelimbs and thoracic trunk were wrapped in a confining harness of paper tape to restrict, but not prevent body movements. Control sham-stress animals were anesthetized but not wrapped. […]
Rats were treated orally with compound A (30 mg/kg in DMSO/cremophor/isotonic saline (1:1:8 v:v:v), n=8), or vehicle only (DMSO/cremophor/isotonic saline (1:1:8 v:v:v), 1 mL, n=9) with or without 2 hour PRS sessions. The number of abdominal contractions was recorded by electromyography per 5-minute period (y axis) for each distension pressure of 0 mmHg, 15 mmHg, 30 mmHg, 45 mmHg and 60 mmHg (x axis); the ? symbols represent the results for the control+vehicle group (n=9); the symbols ? represent the results for the stress+vehicle group (n=9); the symbols ? represent the results for the stress+compound A group (n=8). Data are mean values with SEM.
Rats were treated orally with compound B (30 mg/kg in DMSO/cremophor/isotonic saline (1:1:8 v:v:v), n=9), or vehicle only (DMSO/cremophor/isotonic saline (1:1:8 v:v:v), 1 mL, n=9) with or without 2 hour PRS sessions. The number of abdominal contractions was recorded by electromyography per 5-minute period (y axis) for each distension pressure of 0 mmHg, 15 mmHg, 30 mmHg, 45 mmHg and 60 mmHg (x axis); the symbols ? represent the results for the control+vehicle group (n=9); the symbols ? represent the results for the stress+vehicle group (n=9); and the symbols ? represent the results for the stress+compound B group (n=9). Data are mean values with SEM.
The effect of FAAH inhibitor URB597 was tested at 3 mg/kg and 10 mg/kg in the PRS model of visceral hyperalgesia essentially as described in Examples 1 and 2. URB597 was formulated as a suspension in vehicle [DMSO/cremophor/isotonic saline (1:1:8 v:v:v)]. […]

[1] = system: Male Sprague Dawley (SD) rats; test: Cortagine-induced visceral hypersensitivity to colorectal distension; format: in vivo, rat
Excerpt: Male Sprague Dawley (SD) rats (250-275 g, Harlan Labs, Indianapolis, Ind.) were kept under standard conditions of humidity and temperature and a 12-hour light/dark cycle (lights on 6.00 a.m.). Animals were group housed and had access to food ad libitum. Prior to the start of studies, animals were acclimatized to handling and administration of treatments (oral syringe feeding and subcutaneous injection). At the end of the experiments, animals were sacrificed by CO2 gas inhalation followed by thoracotomy or isoflurane anesthesia followed by decapitation with appropriate approved animal protocols.
On the day of the experiments, rats were injected intraperitoneally (IP) with cortagine (10 μg/kg, 0.8 ml/kg in DMSO/cremophor/isotonic saline (1:1:8 v:v:v). Cortagine, a selective corticotropin releasing factor receptor 1 (CRF1) agonist, prepared as described previously (Rivier et al. J. Med. Chem. 2007: 50:1668-1674), was stored in a powder form at −80° C. and prepared in sterile water (12.5 μg/ml) immediately before use. This dose had previously been established to show a significant increase in defecation, induction of diarrhea and increase in colonic motility, permeability and visceral pain in rats. (Larauche et al. Am. J. Physiol. Gastrointest. Liver Physiol. 2009: 297:G215-G227)
FAAH inhibitor compounds URB597 [3′-(aminocarbonyl)biphenyl-3-yl cyclohexyl carbamate], compound A and compound B were formulated as suspensions in DMSO/cremophor/isotonic saline (1:1:8 v:v:v). The concentration of the respective dosing FAAH inhibitor compound suspensions were 6 mg/ml for 30 mg/kg dose of compound A or compound B; 2 mg/ml for the 10 mg/kg dose of compound B; and 1.5 mg/ml for the 3 mg/kg dose of URB597. Compound A, compound B or vehicle treatment was administered to rats by per os (PO) route at dose-volume of 5 ml/kg. URB597 treatment was administered to rats by subcutaneous (SC) route at dose volume of 2 ml/kg. The vehicle for the PO route was DMSO/cremophor/isotonic saline (1:1:8 v:v:v). Vehicle (PO), URB597 (SC), compound A and compound B (PO) were administered to non-fasted rats, restrained by hand. The regimen of administration of URB597, compound A and compound B involved one delivery (PO or SC) performed 120 min before IP injection of cortagine.
Visceral pain was assessed using a non-invasive pressure transducer system referred to as “sensor balloon” as previously described (Larauche et al. Am. J. Physiol. Gastrointest. Liver Physiol. 2009: 297:G215-G227; Ness et al. Brain Res. 1988: 450:153-169). Briefly, in adult non-fasted SD rats, a 4-5 cm “sensor balloon” lubricated with surgical lubricant (Surgilube, Fougera, Melville) was inserted intra-anally under brief isoflurane anesthesia. The “sensor balloon” was positioned such that its distal end was 1 cm proximal to the anal verge and secured in place by tapping the balloon catheter to the tail. Rats were placed individually in Boolman's cage and allowed to recover from anesthesia and habituation. The colorectal procedure was performed using the Distender Series Ilir dual barostat (G&J Electronics Inc, Toronto, Ontario). The CRD protocol consisted of 2 CRD at 60 mmHg to unfold the balloon followed by 2 sets of CRD at 10, 20, 40 and 60 mmHg, 20 s duration, 4-min inter-stimulus interval. The intra-luminal colonic pressure (ICP) was recorded for 20 s before, during and after termination of CRD. […]

[2] = 3 mg/kg SC 2 h before cortagine
[3] = 3 mg/kg SC 2 h before cortagine, n=11
[4] = 3 mg/kg SC 2 h before cortagine, normalized to baseline VMR at 60 mmHg

## NC(=O)c1cccc(-c2cccc(OC(=O)NC3CCCCC3)c2)c1 [URB597, 3′-(aminocarbonyl) biphenyl-3-yl cyclohexyl carbamate, reference compound]
Female Wistar rats
  number of abdominal contractions (antihyperalgesic effect) in PRS model: did not exhibit an antihyperalgesic effects
Female Wistar rats; listed as URB-597
  number of abdominal contractions (antihyperalgesic effect) in PRS model: no differences in number of abdominal contractions were observed
[1]; [2]
  % hypersensitive rats at 40 mmHg: 55%
  rats with increased VMR over baseline between 0 and 50% at 60 mmHg: 18%
  rats with increased VMR over baseline between 51 and 100% at 60 mmHg: 9%
  rats with increased VMR over baseline over 101% at 60 mmHg: 9%
[1]; 3 mg/kg SC 2 h before cortagine 10 μg/kg IP, 40 and 60 mmHg
  effect on cortagine-induced visceral hypersensitivity to CRD: abolished the visceral hypersensitivity; also recorded: prevented the visceral hypersensitivity
[1]; [3]
  rats presenting a decrease in VMR compared to baseline at 60 mmHg: 64%
  rats presenting an increased VMR over baseline (% hypersensitive rats) at 60 mmHg: 36%
[1]; [4]
  VMR to CRD at 40 mmHg: 81.89±16.38%
  VMR to CRD at 60 mmHg: 97.62±20.02%
[1]; second trial, URB597 3 mg/kg SC 2 h before cortagine IP, n=7, p<0.001
  VMR versus vehicle/cortagine rats at 60 mmHg CRD: significant differences
[1]; summary statement referring to Example 3
  antihyperalgesic effects in the cortagine model of visceral pain: did exhibit antihyperalgesic effects
